The values below come from article PMC5118696, “Identification of inhibitors that dually target the new permeability pathway and dihydroorotate dehydrogenase in the blood stage of Plasmodium falciparum” (Scientific Reports, 2016).

Assay [1] has as its system Hyp1-NLuc Plasmodium falciparum-infected erythrocytes (new permeability pathway, NPP). Kind of assay: microbe, parasite or virus in culture. Particulars: Erythrocyte, 0.33 h, read-out: % of control remaining.
For assay [2] the test system is unchanged. The assay can be described thus: microbe, parasite or virus in culture. To be noted: Erythrocyte, 0.33 h, read-out: Mean RLU at 28 min (As % of DMSO control).

The structures appear in SMILES notation. Read-outs that look alike come from different tables or passages of the source.

Consider `OCCNc1nc(Nc2ccc(Cl)c(Cl)c2)nc2ccccc12` [MMV001041], for which the activity at 2 µM in assay [1] came to 95.1%; in assay [2], 97.4%.

For the compound `C[n+]1c2ccccc2nc2ccc(NCCO)cc21` [MMV396693], the activity at 2 µM in assay [1] is 100%; in assay [2] it was 101%.

In the case of `COc1cccc(NC(=O)Cn2c(C)c(C#N)c3ccccc32)c1` [MMV665826], the activity at 2 µM in assay [1] came to 109%; in assay [2], 101%.

With `COc1cccc(C2(C)Nc3ccccc3-c3nc4ccccc4n32)c1` (stereo not drawn) [MMV396719], the activity at 2 µM in assay [1] and in assay [2] was 105% each time.

In the case of `COc1ccc(-c2nc(N3CCN(C(=O)C4CCCCC4)CC3)c3c4c(sc3n2)CCCC4)cc1` [MMV396594], the values for the activity at 2 µM in assay [1] and in assay [2] were 87.1% and 88.9%, respectively.

As to `COc1cc(C(=O)Nc2nc3c(cc4c5c(cccc53)CC4)s2)cc(OC)c1OC` [MMV396665], the activity at 2 µM in assay [1] worked out at 102%; in assay [2], 103%.

Turning to `CCOc1ccc2nc(C)cc(Nc3ccc(Br)cc3)c2c1` [MMV006522], the activity at 2 µM in assay [1] turned out to be 104%; in assay [2], 102%.

As for `O=C(Nc1ccc(Br)cc1)Nc1cccc(Cl)c1` [MMV001318], the activity at 2 µM was found to be 107% in assay [1] and 105% in assay [2].

As to `CCOC(=O)c1c(C)n(-c2ccccc2)c2ccc(OC(=O)c3cc(OC)c(OC)c(OC)c3)cc12` [MMV396664], the figures for the activity at 2 µM in assay [1] and in assay [2] were 97.3% and 94.9%, respectively.

On to `COc1ccc(Nc2nc(NN=Cc3ccc(O)cc3)nc(Nc3ccc([N+](=O)[O-])cc3)n2)cc1` [MMV666689], for which the activity at 2 µM is 93.1% in assay [1] and 95.2% in assay [2].

Consider `CC(NCc1ccccc1)c1cc(Cl)ccc1O` (stereo not drawn) [MMV665789], for which the figures for the activity at 2 µM in assay [1] and in assay [2] were 117% and 107%, respectively.

As to `FC(F)(F)c1ccc(Nc2nnnc3ccccc23)cc1` [MMV665935], the activity at 2 µM is 112% in assay [1] and 99.5% in assay [2].

Take `CCOc1ccccc1NC(=O)CN1CCN(C(=O)c2ccco2)CC1` [MMV007791]: the activity at 2 µM in assay [1] was 108%; in assay [2], 106%.

With `COc1ccc(C2N(C)c3ccccc3N2C)cc1` [MMV666075], the activity at 2 µM came out at 123% in assay [1] and 109% in assay [2].

As for `CCOc1cccc(C(=O)Nc2ccc(-c3nc4ccccc4[nH]3)cc2)c1` [MMV019202], the activity at 2 µM came out at 117% in assay [1] and 118% in assay [2].

Regarding `Cc1cc(NC(=O)c2ccc(-c3ccccc3)cc2)no1` [MMV018984], the activity at 2 µM in assay [1] turned out to be 110%; in assay [2], 111%.

`CC1(c2ccccc2)Nc2ccccc2-c2nc3ccccc3n21` (stereo not drawn) [MMV396715]: the activity at 2 µM in assay [1] was found to be 100%; in assay [2], 102%.

Turning to `CN(C)CCNc1cc(-c2ccccc2)nc2ccccc12` [MMV006704], the activity at 2 µM in assay [1] stood at 92%; in assay [2], 90.8%.

Take `COc1ccc(C(=O)C(CCC(CNC(C)(C)C)C(=O)c2ccc(OC)cc2)CNC(C)(C)C)cc1` (stereo not drawn) [MMV007591]: the activity at 2 µM in assay [1] came out at 102%; in assay [2], 103%.

For the compound `CCN(CC)CCn1c(=N)n(CC(O)c2ccc(Cl)c(Cl)c2)c2ccccc21` (stereo not drawn) [MMV000248], the values for the activity at 2 µM in assay [1] and in assay [2] were 98.3% and 97.6%, respectively.

Consider `OC(Cn1nnc2ccccc21)Cn1c2ccc(Br)cc2c2cc(Br)ccc21` (stereo not drawn) [MMV666025], for which the activity at 2 µM turned out to be 105% in assay [1] and 99.5% in assay [2].

With `CCCCNCC(O)(c1ccc(Cl)cc1)c1ccc(Cl)cc1` [MMV665929], the values for the activity at 2 µM in assay [1] and in assay [2] were 122% and 107%, respectively.

Turning to `CCOC(=O)c1cnc2ccc(OC)cc2c1Nc1ccc(N2CCN(C)CC2)cc1` [MMV000704], the figures for the activity at 2 µM in assay [1] and in assay [2] were 94.6% and 106%, respectively.

In the case of `COc1cc(CNCCc2ccc(Cl)cc2)cc(OC)c1O` [MMV128432], the results for the activity at 2 µM in assay [1] and in assay [2] were 97.8% and 97.7%, respectively.
